In publication PMC12030497, “Plasma Protein Binding, Biostability, Metabolite Profiling, and CYP450 Phenotype of TPB15 Across Different Species: A Novel Smoothened Inhibitor for TNBC Therapy” (Pharmaceutics, 2025):

Legend:
[1] = Stability in human plasma; format: in vitro ADME; conditions: 37 °C, 453 μg/L
Method: A total of 696.5 μL of plasma from each species (healthy mice, rat, dog, monkey, and human) were spiked with 3.5 μL of TPB15 stock solution ([…] in DMSO), resulting in a final TPB15 concentration of 453 μg/L in plasma. The mixture was then aliquoted into three tubes, each with a volume of 200 μL, maintaining a final DMSO concentration of 0.5%. After incubation in a water bath at 37 °C for 0, 30, 60, 90, and 120 min, 100 µL samples were transferred into EP tubes. Subsequently, 10 µL of internal standard working solution were added, followed by vortex mixing. Then, 500 µL of ethyl acetate were added, and the mixture was vortexed again before being centrifuged at 14,800 rpm at 4 °C for 10 min. A total of 400 µL of the supernatant were transferred into a new EP tube and placed in a vacuum concentrator (Bionoon-VAC2) (Bionoon Biotech, Shanghai, China) to dry for 1 h. The dried residue was reconstituted with 100 µL of mobile phase, vortex mixed thoroughly, and centrifuged again at 14,800 rpm at 4 °C for 10 min. A volume of 5 µL of the supernatant was then taken for LC-MS/MS analysis to determine the drug concentration. Additionally, a blank control group was established, in which PBS buffer was used in place of blank plasma in the incubation system.

[2] = Metabolic stability in rat liver microsomes (RLM); format: in vitro ADME, Sprague-Dawley rat
Method: (§1) A total of 450 μL liver microsomes from mice, rat, dog, monkey, and human were spiked with 0.5 μL of TPB15 solution and pre-incubated in a water bath at 37 °C for 10 min. Following this, 50 μL of NADPH were added to initiate the reaction. The concentrations of each substance in the incubation system are detailed in Table 1. After initiating the metabolic reaction, 50 μL aliquots were removed at incubation times of 0, 5, 15, 30, 45, 60, and 90 min and transferred to 150 μL of icy methanol solution containing the internal standard to terminate the reaction. The mixtures were swirled for 2 min and then centrifuged at 14,800 rpm at 4 °C for 10 min. […] Three samples were prepared in parallel at each time point. Additionally, both a positive control group and a blank control group were established. In the positive control group, substrate testosterone was incubated with liver microsomes from mice, rat, dog, monkey, and human. The concentrations of substrate testosterone were measured at 0 and 90 min, and the changes in concentration before and after incubation were compared to confirm the activity of the liver microsomes. The blank control group included one drug-containing inactivated liver microsome sample for each species. The metabolic stability parameters, including in vitro elimination half-life (T1/2) and in vitro intrinsic clearance rate (CLint), were calculated based on this graph using the following formulas: in vitro elimination half-life (T1/2) = −0.693/k and in vitro intrinsic clearance rate (CLint) = (0.693 × incubation medium (mL))/(liver microsomes (mg) × T1/2).

[3] = Metabolite identification in human liver microsomes; format: in vitro ADME; conditions: metabolite +16 Da, seen at 45 and 90 min, not at 0 min
Method: A total of 450 μL of human liver microsomes were spiked with 0.5 μL of the substrate TPB15 and incubated in a water bath at 37 °C for 10 min. The reaction was initiated by adding 50 μL of NADPH. Following incubation, 50 μL of the reaction mixture were transferred to 150 μL of ice-cold methanol to terminate the reaction. The mixture was then centrifuged at 14,800 rpm at 4 °C for 10 min. A volume of 5 μL of the supernatant was collected for analysis using a QTRAP 4000 mass spectrometer(AB Sciex, Framingham, MA, USA), with three parallel samples prepared for each time point. The primary mass spectrometry conditions were as follows: curtain gas at 30 psi, sprayer gas (GS1) at 50 psi, drier gas (GS2) at 50 psi, ion source temperature at 550 °C, and cluster-removal voltage at 100 V. The ion source (IS) spray voltage was set to 5500 V, with a focusing potential (FP) of 200 V, an entrance potential (EP) of 10 V, an exit potential (CXP) of 15 V, and a collision energy of 86 V for TPB15. Chromatographic separation was performed using an Agilent ZORBAX Stable Bond C18 column (50 mm × 2.1 mm i.d., 3.5 μm particle size) at a column temperature of 35 °C. The injection volume was 5 μL, and the elution was carried out in gradient mode. The mobile phase consisted of two components: mobile phase A (an aqueous solution with 0.1% formic acid) and mobile phase B (methanol). […]

[4] = Plasma protein binding by ultrafiltration, human plasma; format: in vitro ADME
Method: To prepare plasma samples of TPB15 at final concentrations of 4, 8, and 16 μg/mL, 1 μL of TPB15 dissolved in dimethyl sulfoxide (DMSO) at low (400 μg/mL), medium (800 μg/mL), and high (1600 μg/mL) concentrations was added to 99 μL of blank plasma obtained from humans, rats, mice, monkeys, and dogs. Each concentration was prepared in six replicates. The samples were then divided into two groups: one for determining the pre-ultrafiltration concentration (Cpre) and the other for measuring the post-ultrafiltration concentration (Ct), following the evaluation of the non-specific binding coefficient (NSB) of TPB15 to the ultrafiltration tubes. For Cpre determination, 10 μL of the sample was mixed with 990 μL of plasma, vortexed thoroughly, and analyzed for drug concentration using the previously reported liquid chromatography–tandem mass spectrometry (LC-MS/MS) method. For Ct determination, the samples were first incubated in a water bath at 37 °C for 3 h. After incubation, they were transferred to ultrafiltration tubes and centrifuged at 14,000 rpm for 20 min at 4 °C using a centrifuge (Sigma 3K-15) from Sigma Laborzentrifugen GmbH (Osterode am Harz, Germany). After centrifugation, 10 μL of the ultrafiltrate was mixed with 990 μL of plasma, vortexed, and analyzed for concentration using the same LC-MS/MS method. The formula for calculating the plasma protein binding rate (PPB) is as follows: PPB (%) = [1 − Ct/(1 − NSB)/Cpre] × 100%. (NSB: non-specific binding coefficient. […]).

[5] = Metabolic stability in dog liver microsomes (DLM); format: in vitro ADME, beagle dog
Method: as §1

O=C(Nc1ccc(Cl)c(-c2nnc3c(Cl)cccn23)c1)c1ccc(Cl)nc1Cl [TPB15]
Remaining proportion of substrate TPB15 (%) Human ([1]; incubation 0 min): 100.0 ± 1.0%
Remaining proportion of substrate TPB15 (%) Human ([1]; incubation 30 min): 97.3 ± 1.5%
Remaining proportion of substrate TPB15 (%) Human ([1]; incubation 60 min): 97.7 ± 0.6%
Remaining proportion of substrate TPB15 (%) Human ([1]; incubation 90 min): 98.0 ± 1.0%
Remaining proportion of substrate TPB15 (%) Human ([1]; incubation 120 min): 97.2 ± 1.1%
remaining proportion of TPB15 in liver microsomes ([2]; Sprague-Dawley rat microsomes, 90 min, 5 μM TPB15, 0.5 mg/mL, NADPH 1 mM): 76.0 ± 0.89%
microsomal CLint at 5 μM ([2]; Sprague-Dawley, rat, liver microsomes, RLM, 5 μM TPB15, 0.5 mg/mL microsomes, read-out: CLint (mL/min/mg), in vitro intrinsic clearance rate): 0.0344 mL/min/mg
metabolic reaction of TPB15 in human liver microsomes [3]: oxidation
fraction unbound at 3 h ([4]; human plasma, 4 to 16 μg/mL, read-out: average plasma protein binding rates, range over concentrations): 0.179 to 0.185
fraction unbound at 3 h, 4 μg/mL ([4]; human, plasma, 4 μg/mL TPB15, ultrafiltration, 37 °C 3 h): 0.185
fraction unbound at 3 h, 8 μg/mL ([4]; human, plasma, 8 μg/mL TPB15, ultrafiltration, 37 °C 3 h): 0.183
fraction unbound at 3 h, 16 μg/mL ([4]; human, plasma, 16 μg/mL TPB15, ultrafiltration, 37 °C 3 h): 0.179
remaining proportion of TPB15 in liver microsomes ([5]; beagle dog microsomes, 90 min, 5 μM TPB15, 0.5 mg/mL, NADPH 1 mM): 90.3 ± 3.54%
microsomal CLint at 5 μM ([5]; beagle, dog, liver microsomes, DLM, 5 μM TPB15, 0.5 mg/mL microsomes, read-out: CLint (mL/min/mg), in vitro intrinsic clearance rate): 0.0132 mL/min/mg
half-life at 5 μM ([5]; beagle, dog, liver microsomes, DLM, 5 μM TPB15, 0.5 mg/mL microsomes, read-out: T1/2 (min), in vitro elimination half-life): 630 min
